# From patent US6423518B1, “Design and production of mutant 2,5-diketo-D-gluconic acid reductase enzymes with altered cofactor dependency” (Rutgers, the State University, priority 2000, dated 2002)
# What was measured:
# [1] = target: T1, 2,5-diketo-D-gluconic acid reductase A (Corynebacterium sp., wild type SEQ ID NO:1) variant R235T (Corynebacterium sp., UniProt P06632, R235T); assay: Kinetic determination with purified enzyme, NADH cofactor, initial rates (microtiter plate); format: biochemical
# T1 construct: GroES fragment (N); made in house; host or cells: E. coli JM109
# Procedure: (§1) The activities of the purified enzymes were assayed in 96-well microtiter plates on a plate reader.
# (§2) Equation (1) is: [formula]
# (§3) B=2,5-diketo-D-gluconic acid concentration;
# (§4) Kb=Michaelis Constant for 2,5-diketo-D-gluconic acid;
# (§5) Kia=Dissociation Constant for NADH;
# (§6) Et=Total enzyme concentration.
# (§7) However, the parameters could not be fit in this model with any accuracy, due to the large apparent value of KM for 2,5-diketo-D-gluconic acid, and the low concentration of 2,5-diketo-D-gluconic acid that was used. The 2,5-diketo-D-gluconic acid concentrations were not large enough to saturate the enzyme, so a further mathematical simplification was required. Preliminary fitting of the model indicated both kcat and Kb to be very large in comparison to Ka and Kia Therefore, the rate equation was simplified to the following equation (2): [formula]
# (§8) This equation is only valid when B<<Kb.
# (§9) This equation was then used to fit the kinetic data, with much better results.
# (§10) Other comparisons can also be made between the different mutants using these parameters. […]
# (§11) Cells containing plasmids for some of the mutant reductases were grown up on a 1 liter scale using a 10 ml inoculum from a saturated overnight culture. The cells were grown until absorbance of the culture at 600 nm was approximately 1.0. The cells were then induced by adding IPTG to a final concentration of 1 mM. The cells were harvested after growth at 37° C. for 4 hours. The cells were then pelleted by centrifugation and frozen for later use. At a later date, cells were thawed and lysed with the Bug Buster detergent (Novagen) containing Complete Protease Inhibitor Cocktail Tablets (Roche). The pH was lowered to 5.5 with 20 mM sodium acetate (NaOAc) and NaCl was added to a final concentration of 0.15 M. After 10 minutes with the detergent, the cell debris was removed by centrifugation, and the supernatant was loaded onto disposable chromatography columns containing a 10 ml bed volume of DEAE Cellulose (Sigma) for a batch weak ion exchange step. The resin was washed with 0.15 M NaCl, still in the presence of NaOAc, pH 5.5. The bound proteins were then eluted by two washes with 0.5 M NaCl. The eluted material was then diluted back to 0.15 M NaCl by the addition of more 20 mM NaOAc buffer. This was then loaded onto a 4.6 mmD/100mml PEEK column (PerSeptive Biosystems) containing 50 μm DEAE Ceramic HyperD F resin (BioSepra) using an FPLC system. The high performance resin was washed with 0.1 M NaCl and the bound proteins were eluted using a linear salt gradient up to 0.4 M NaCl. Active fractions were pooled and the pH was raised to 7.0 using 50 mM bis-Tris. The pooled fractions were then concentrated by ultrafiltration in a stirred cell unit using a polyethersulfone membrane with a 10,000 MW cut-off (Millipore). The concentrate was loaded onto a Superdex-75 gel filtration column (Pharmacia) using 50 mM bis-Tris pH 7.0 with an FPLC system. The active fractions were again pooled. A small sample from the pooled fractions was electrophoresed on a polyacrylamide gel in the presence of SDS in order to insure homogeneity of the final product.
# (§12) NADPH and NADH were prepared fresh for each use in kinetic measurements. These reactions were performed in 96-well microtiter plates using a SpectraMax 190 plate reader (Molecular Devices). Varying amounts of cofactor and substrate were added to the wells and reaction was initiated by the addition of the mutant enzyme. The final volume of each reaction was 200 μl, the reactions were buffered with 50 mM bis-Tris pH 7.0, and the temperature was held at 25° C. […] Initial rate data was collected in each well, and a standard curve was generated each day in order to correlate the change in absorbance of the reaction to a change in concentration of cofactors. All measurements were performed in triplicate (at least) and the runs were averaged for use in kinetic modeling.
# [2] = target: T2, 2,5-diketo-D-gluconic acid reductase A (Corynebacterium sp., wild type SEQ ID NO:1) variant R238E (Corynebacterium sp., UniProt P06632, R238E); assay: as above; format: biochemical
# T2 construct: GroES fragment (N); made in house; host or cells: E. coli JM109
# Procedure: as §1, §2, §3, §4, §5, §6, §7, §8, §9, §10, §11, §12
# [3] = target: T3, 2,5-diketo-D-gluconic acid reductase A (Corynebacterium sp., wild type SEQ ID NO:1) variant R238H (Corynebacterium sp., UniProt P06632, R238H); assay: as above; format: biochemical
# T3 construct: GroES fragment (N); made in house; host or cells: E. coli JM109
# Procedure: as §1, §2, §3, §4, §5, §6, §7, §8, §9, §10, §11, §12
# [4] = target: T4, 2,5-diketo-D-gluconic acid reductase A, wild type, Corynebacterium sp. (ATCC Strain No. 31090; Genbank Accession No. 4699594; SEQ ID NO:1) (Corynebacterium sp., UniProt P06632); assay: as above; format: biochemical
# T4 construct: GroES fragment (N); made in house; host or cells: E. coli JM109
# Procedure: as §1, §2, §3, §4, §5, §6, §7, §8, §9, §10, §11, §12
# [5] = system: hemolymph 3-dehydroecdysone 3β-reductase from Spodoptera littoralis; details: read-out: KM for NADH; Chen et al. Eur. J. Biochem. 1996; cited from earlier work
# [6] = kcat/Ka apparent with NADH, relative to wild type
# [7] = versus wild type, NADH as varied substrate
# T3 sequence (P06632 whole entry R238H, the tested form may be a part): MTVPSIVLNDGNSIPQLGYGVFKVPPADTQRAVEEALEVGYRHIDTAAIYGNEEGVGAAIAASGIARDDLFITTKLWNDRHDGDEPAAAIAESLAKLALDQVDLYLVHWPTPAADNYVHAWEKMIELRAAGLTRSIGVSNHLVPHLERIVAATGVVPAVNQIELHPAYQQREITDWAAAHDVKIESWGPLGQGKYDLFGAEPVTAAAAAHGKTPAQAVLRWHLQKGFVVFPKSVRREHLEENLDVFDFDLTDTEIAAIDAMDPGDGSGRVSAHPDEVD
# T4 sequence (P06632 whole entry, the tested form may be a part): as the sequence (P06632 whole entry R238H, the tested form may be a part) above, with H238R counted along it
# T1 sequence (P06632 whole entry R235T, the tested form may be a part): as the sequence (P06632 whole entry R238H, the tested form may be a part) above, with R235T, H238R counted along it
# T2 sequence (P06632 whole entry R238E, the tested form may be a part): as the sequence (P06632 whole entry R238H, the tested form may be a part) above, with H238E counted along it
smiles,measurement,setting,value
NC(=O)C1=CN([C@@H]2O[C@H](COP(=O)(O)OP(=O)(O)OC[C@H]3O[C@@H](n4cnc5c(N)ncnc54)[C@H](O)[C@@H]3O)[C@@H](O)[C@H]2O)C=CC1 [NADH],(kcat/KbKia)/(kcat/KbKia)wt,[1]; [6],0.54
same,Kia/(Kia)wt,"[1]; relative to wild type, NADH",3.40
same,increase of apparent Ka,[1]; [7],more than 3 fold
same,increase of apparent kcat,[1]; [7],2 fold
same,Kd,[2],8450 ± 1740 µM
same,(kcat/KbKia)/(kcat/KbKia)wt,[2]; [6],0.63
same,Kia/(Kia)wt,"[2]; relative to wild type, NADH",3.25
same,change of apparent kcat,[2]; [7],doubled
same,increase of apparent Ka,[2]; [7],more than 3 fold
same,Kd,[3],2070 ± 130 µM
same,(kcat/KbKia)/(kcat/KbKia)wt,[3]; [6],6.71
same,Kia/(Kia)wt,"[3]; relative to wild type, NADH",0.80
same,improvement in apparent kcat,[3]; [7],more than 5 fold
same,(kcat/KbKia)/(kcat/KbKia)wt,[4]; [6],1.00
same,Kd,[4]; read-out: Kia,2600 ± 160 µM
same,Kia/(Kia)wt,"[4]; relative to wild type, NADH",1.00
same,Km,[5],22.8 µM
